# Strand notation (5' to 3'): a small letter for the sugar, then the base; units joined by * are phosphorothioate-linked, units joined directly phosphodiester-linked; [ ] holds rarer units or linkages, { } end groups; capitals alone tell only the bases. k = constrained ethyl (cEt); [5mC] = 5-methylcytosine; d = 2'-deoxy (DNA)
# Tested on: Yap1 mRNA
# Assay: Antisense inhibition of human Yap1 in A-431 cells by cEt gapmers, single dose (Example 3, RTS36584)
# Type: cell-based
# Method: Modified oligonucleotides were designed to target a Yap1 nucleic acid and were tested for their effect on Yap1 mRNA level in vitro. The modified oligonucleotides were tested in a series of experiments that had similar culture conditions. Cultured A-431 cells at a density of 5,000 cells per well were treated using free uptake with 2,000 nM of modified oligonucleotide. After a treatment period of approximately 48 hours, RNA was isolated from the cells and Yap1 mRNA levels were measured by quantitative real-time RTPCR. Human primer probe set RTS36584 (forward sequence […], designated herein as SEQ ID NO.: 14; reverse sequence […], designated herein as SEQ ID NO.: 15; probe sequence […], designated herein as SEQ ID NO.: 16) was used to measure mRNA levels. Yap1 mRNA levels were normalized to total RNA content, as measured by RIBOGREEN®. Results are presented in the tables below as percent control of the amount of Yap1 mRNA relative to untreated control cells (% UTC). The modified oligonucleotides with percent control values marked with an asterisk (*) target the amplicon region of the primer probe set. Additional assays may be used to measure the potency and efficacy of the modified oligonucleotides targeting the amplicon region.
# The newly designed modified oligonucleotides in the Tables below were designed as 3-10-3 cEt gapmers. The gapmers are 16 nucleosides in length, wherein the central gap segment comprises of ten 2′-deoxynucleosides and is flanked by wing segments on the 5′ direction and the 3′ direction comprising three nucleosides each. Each nucleoside in the 5′ wing segment and each nucleoside in the 3′ wing segment has a cEt sugar modification. The internucleoside linkages throughout each gapmer are phosphorothioate (P═S) linkages. All cytosine residues throughout each gapmer are 5-methylcytosines.
# “Start site” indicates the 5′-most nucleoside to which the gapmer is targeted in the human gene sequence. “Stop site” indicates the 3′-most nucleoside to which the gapmer is targeted human gene sequence. […] Activity of the modified oligonucleotide may be defined in a different experiment.
# [1] = Table 10, A-431 cells, 5,000 cells per well, free uptake, 2,000 nM oligonucleotide, approx. 48 hours, primer probe set RTS36584, Yap1 mRNA normalized to RIBOGREEN, percent of untreated control
# [2] = Table 11, A-431 cells, 5,000 cells per well, free uptake, 2,000 nM oligonucleotide, approx. 48 hours, primer probe set RTS36584, Yap1 mRNA normalized to RIBOGREEN, percent of untreated control
# [3] = Table 13, A-431 cells, 5,000 cells per well, free uptake, 2,000 nM modified oligonucleotide, approx. 48 hours, RTS36584, normalized to RIBOGREEN, Yap1 mRNA relative to untreated control cells
# [4] = Table 34, Yap1 mRNA as percent of untreated control, 3-10-3 cEt gapmers targeting SEQ ID NO: 1 and 2, single dose
# [5] = Table 12, A-431 cells, 5,000 cells per well, free uptake, 2,000 nM modified oligonucleotide, approx. 48 hours, RTS36584, normalized to RIBOGREEN, Yap1 mRNA relative to untreated control cells
# [6] = Table 29, Yap1 mRNA as percent of untreated control, 3-10-3 cEt gapmers targeting SEQ ID NO.: 1, and 2
# [7] = Table 28, Yap1 mRNA as percent of untreated control, 3-10-3 cEt gapmers targeting SEQ ID NO.: 1, and 2
substance,measurement,setting,value
958452 (antisense k[5mC]*kT*k[5mC]*d[5mC]*dA*dG*dG*dT*d[5mC]*dG*dG*dT*d[5mC]*kT*k[5mC]*k[5mC]) [Compound 958452],YAP1 (% UTC),[1],26 % UTC
958688 (antisense kG*kG*k[5mC]*dT*dA*dT*dG*dT*dA*dG*d[5mC]*d[5mC]*dT*kT*k[5mC]*k[5mC]) [Compound 958688],YAP1 (% UTC),[2],82 % UTC
958625 (antisense kT*kG*k[5mC]*dT*dG*dG*dG*dA*dT*dT*dG*dA*dT*kA*kT*kT) [Compound 958625],YAP1 (% UTC),[3],6 % UTC
958702 (antisense kT*kG*kA*dT*dG*dT*d[5mC]*dT*dT*dG*dT*d[5mC]*d[5mC]*kA*kG*kA) [Compound 958702],YAP1 (% UTC),[1],16 % UTC
958515 (k[5mC]*k[5mC]*k[5mC]*d[5mC]*dA*dA*d[5mC]*d[5mC]*dA*dG*dA*dT*dT*kT*kA*kA; antisense) [Compound 958515],YAP1 (% UTC),[3],28 % UTC
1075220 (kA*kA*kT*dT*dT*dT*dA*dA*d[5mC]*dT*dG*dT*dG*kA*k[5mC]*k[5mC]; antisense) [compound 1075220],YAP1 (% UTC),[4],24 % UTC
1074412 (k[5mC]*kT*kG*dT*dG*dA*dA*dA*dG*dA*dG*dG*dT*k[5mC]*kA*kG; antisense) [compound 1074412],YAP1 (% UTC),"Table 26, Yap1 mRNA by 3-10-3 cEt gapmers targeting SEQ ID NO.: 1, and 2, percent of untreated control",55 % UTC
958714 (antisense kG*kA*kG*d[5mC]*dA*d[5mC]*dT*dG*d[5mC]*dG*d[5mC]*d[5mC]*d[5mC]*kT*kG*kG) [Compound 958714],YAP1 (% UTC),[5],82 % UTC
1075924 (antisense kA*kT*kT*dT*dA*dA*dT*dA*d[5mC]*dT*d[5mC]*dT*d[5mC]*kT*kG*kG) [compound 1075924],YAP1 (% UTC),[4],21 % UTC
958779 (antisense kT*k[5mC]*kG*dA*dA*dT*dA*dT*dA*dG*dA*dG*dG*k[5mC]*k[5mC]*kT) [Compound 958779],YAP1 (% UTC),[5],80 % UTC
958502 (k[5mC]*kT*kA*dT*dT*dA*dA*d[5mC]*dA*dG*dA*dT*dT*k[5mC]*kA*k[5mC]; antisense) [Compound 958502],YAP1 (% UTC),[1],13 % UTC
958656 (kA*k[5mC]*kG*d[5mC]*dA*dA*dT*d[5mC]*dT*dG*dT*dG*dA*kT*k[5mC]*k[5mC]; antisense) [Compound 958656],YAP1 (% UTC),"Table 9, A-431 cells, 5,000 cells per well, free uptake, 2,000 nM, approximately 48 hours, RTS36584, normalized to RIBOGREEN, Yap1 mRNA relative to untreated control cells",48 % UTC
1075567 (kG*kA*kT*dA*dT*dA*dT*dA*dA*d[5mC]*dA*dG*dG*k[5mC]*k[5mC]*kA; antisense) [compound 1075567],YAP1 (% UTC),[6],65 % UTC
958594 (k[5mC]*kT*k[5mC]*dT*dT*dA*dG*dG*dT*d[5mC]*dT*d[5mC]*d[5mC]*kT*kT*k[5mC]; antisense) [Compound 958594],YAP1 (% UTC),[5],8 % UTC
1074254 (antisense kA*kT*k[5mC]*dT*dG*dG*dG*dA*d[5mC]*dA*dG*d[5mC]*dA*kT*kG*kG) [compound 1074254],YAP1 (% UTC),[7],13 % UTC
1075789 (kA*kA*kT*dT*dA*d[5mC]*dA*dA*dG*d[5mC]*dT*dA*dA*kT*kG*k[5mC]; antisense) [compound 1075789],YAP1 (% UTC),"Table 27, Yap1 mRNA by 3-10-3 cEt gapmers targeting SEQ ID NO.: 1, and 2, percent of untreated control",79 % UTC
1074735 (kG*kA*kT*d[5mC]*dA*dA*dA*dG*d[5mC]*dA*d[5mC]*dT*dG*kT*kG*k[5mC]; antisense) [compound 1074735],YAP1 (% UTC),[6],117 % UTC
958615 (antisense kT*kG*kG*dT*d[5mC]*dT*dT*dG*dT*dT*d[5mC]*dT*dT*kA*kT*kG) [Compound 958615],YAP1 (% UTC),[3],3 % UTC
958558 (kT*kT*k[5mC]*dA*d[5mC]*dA*dA*d[5mC]*d[5mC]*dA*dA*d[5mC]*dT*kA*kT*kT; antisense) [Compound 958558],YAP1 (% UTC),[2],9 % UTC
958518 (k[5mC]*k[5mC]*kA*d[5mC]*dA*dG*dT*dA*dA*dT*dA*dG*d[5mC]*kT*k[5mC]*kT; antisense) [Compound 958518],YAP1 (% UTC),[2],1 % UTC
1076142 (kA*kT*kA*d[5mC]*dG*dA*dA*dA*dA*dA*dA*dG*d[5mC]*k[5mC]*kA*kA; antisense) [compound 1076142],YAP1 (% UTC),[7],38 % UTC
1075886 (antisense k[5mC]*kA*kT*dA*dA*d[5mC]*dA*d[5mC]*dT*dG*dA*dA*dG*kG*kT*kG) [compound 1075886],YAP1 (% UTC),[7],60 % UTC
